The IC50 is the concentration that gives 50% inhibition.

The structures appear in SMILES notation. Where two headings read alike, the source gives them in different places. Bounds are passed on as bounds.

For 44 compounds, IC50 results are on record in PMC7529893, “Structural basis for substrate recognition and chemical inhibition of oncogenic MAGE ubiquitin ligases” (Nature Communications, 2020).

The assay has as its target T1, MAGE-A11:PCF11 interaction (GST-MAGE-A11 MHD and FAM-PCF11_4) (Homo sapiens, UniProt P43364).
T1 construct: GST-MAGE-A11 MHD (human MAGE-A11 MHD amino acid 218-429); made in house; host or cells: E. coli BL21(DE3)
T1 sequence (P43364 218-429): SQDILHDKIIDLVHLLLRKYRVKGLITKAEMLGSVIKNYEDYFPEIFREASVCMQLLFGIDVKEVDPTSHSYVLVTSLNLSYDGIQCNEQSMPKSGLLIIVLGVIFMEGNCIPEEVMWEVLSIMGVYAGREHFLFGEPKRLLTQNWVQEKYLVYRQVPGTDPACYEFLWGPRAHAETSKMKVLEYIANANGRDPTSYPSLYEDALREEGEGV
The assay is described as follows: TR-FRET dose response test of compounds for disruption of MAGE-A11:PCF11 binding. As to the method:
The TR-FRET assay buffer with a formula of 50 mM Tris pH 7.5, 20 mM MgCl2, 0.1 mg/ml BSA and 1 mM DTT was freshly prepared before each experiment. All TR-FRET assays were performed in black 384-well plates with 20 µl/well assay volume in the TR-FRET assay buffer at room temperature (~25 °C). All peptides or compounds were solubilized in DMSO. To test the competitive activity of peptides or compounds against the interaction between GST-MAGE-A11 MHD and FAM-PCF11_4 peptide, 10 µl/well peptide or compound at specified concentration was dispensed into a black 384-well low volume plate, followed by 5 µl/well FAM-PCF11_4 (800 nM), 5 µl/well Tb-anti-GST (20 nM), and GST-MAGE-A11 MHD (20 nM). The assay components in each well was then mixed by shaking the plate on an IKA MTS 2/4 digital microtiter plate shaker (IKA Works; Wilmington, NC, USA) for 1 min. The plate was further centrifuged in an Eppendorf 5810 centrifuge with an A-4-62 swing-bucket rotor (Eppendorf AG, Hamburg, Germany) at 201 g for 30 s. The plate was then incubated for 90 min with a lid to avoid light exposure to the assay components. After incubation, the fluorescent emission signals at 520 nm and 490 nm channels of individual wells were measured with a PHERAstar FS plate reader (BMG Labtech; Durham, NC, USA) by using a 340 nm excitation filter, 100 µs delay time, and 200 µs integration time. The TR-FRET fluorescence emission ratio (TR-FRET signal) for each well was presented as 10,000 × 520 nm/490 nm, which was used directly for curve fitting, or further converted to %Inhibition based on the respective positive and negative controls. The graphic software GraphPad Prism 4.81 (GraphPad Software; La Jolla, CA, USA) was used to generate curves and derive IC50 values of tested peptides or compounds, if applicable.
TR-FRET screen for identifying MAGE-A11 small molecule inhibitors was performed as follows. The primary one-concentration screening and subsequent 10 or 20-concentration dose-response tests were accomplished with an automated High Throughput Screening system (HighRes Biosolutions, Beverly, MA)[30]. In the primary screening, 15 µl/well FAM-PCF11_4 (267 nM) was first dispensed with a Multidrop Combi Reagent Dispenser (Thermo Fisher Scientific, Waltham, MA) to black 384-well low-volume assay plates. The plates were spun down with a Velocity11 VSpin microplate centrifuge (Agilent Technologies, Santa Clara, CA). In total, 30 nl/well of 10 mM compound/DMSO solutions, or DMSO alone, were transferred from compound plates (the St. Jude FDA drug and bioactive library, Drug-like library and Lead-like library) or a control plate to the assay plates with a Pin Tool (V&P Scientific, San Diego, CA). The compounds were arrayed in columns 3–12 and columns 15–24 of compound plates. The controls were arrayed in columns 1, 2, 13, and 14 of a compound plate. In all, 5 µl/well Tb-anti-GST (20 nM) and GST-MAGE-A11 (20 nM) or 5 µl/well Tb-anti-GST (20 nM) alone was then dispensed to selected wells with a Multidrop Combi Reagent Dispenser. The final assay volume was 20 µl/well. The final DMSO concentration was 0.25% (v/v) (0.1% (v/v) from the FAM-PCF11_4 DMSO stock solution and 0.15% (v/v) from the compound-DMSO solution or the DMSO for the control wells). The final tested compound concentration was 15 µM. The final FAM-PCF11_4 concentration was 200 nM and the final Tb-anti-GST concentration was 5 nM. The final GST-MAGE-A11 concentration was 5 nM except for those selected positive control wells in which GST-MAGE-A11 was not presented. The plates were then shaken with a big bear shaker (Big Bear Automation, Santa Clara, California) and spun down with the Velocity11 VSpin microplate centrifuge for 20 s. The plates were then incubated at room temperature in a Liconic incubator (Liconic US, Woburn, MA) for 90 min. The TR-FRET signals for individual wells were measured with a PHERAstar FS plate reader. The %Inhibition of each tested inhibitor was calculated by using Eq. 1.
Background: Time-resolved FRET reads energy transfer from a long-lived donor to a nearby acceptor.

Setting [1] is: Supplementary Data 3, 59 quinoline compounds, read-out: TR-FRET IC50.
Where [2] appears, read: Dose response TR-FRET screening of nine scaffold groups against MAGE-A11:PCF11, read-out: consensus IC50.
The mark [3] stands for this setting: Supplementary Data 4, read-out: TR-FRET, IC50.

On to `COc1ccc(Oc2ccc3c(NCCCNCc4ccco4)ccnc3c2)cc1` [SJ000311218-1, COc1ccc(Oc2ccc3c(NCCCNCc4occc4)ccnc3c2)cc1], for which, under setting [1], the IC50 is more than 70 µM.

Consider `COc1cc(Cc2ccc3c(NCCCNCc4cccc(OC)c4O)ccnc3c2)cc(OC)c1` [SJ000311311-1], for which the IC50 under setting [2] was 33.6 µM.

Take `COc1cccc(CNCCCNc2ccnc3cc(CC(C)C)ccc23)c1O` [SJ000311259-1]: under setting [2], the IC50 was determined as 68.5 µM.

Regarding `Fc1ccc(Cc2ccc3c(NCCCNCc4cccc5c4OCO5)ccnc3c2)cc1` [SJ000311244-1], under setting [2], the IC50 was found to be 42.3 µM.

With `COc1cccc(-c2nc(S(=O)(=O)c3ccc(C)cc3)c(N3CCOCC3)o2)c1` [SJ000038123-1], the 50% inhibitory concentration (IC50) under setting [2] came to 17.4 µM.

With `Clc1cccc(Cl)c1Cc1ccc2c(NCCCNCc3cccc4c3OCO4)ccnc2c1` [SJ000311316-1], under setting [2], the IC50 amounted to 11 µM.

For `COc1cccc(CNCCCNc2ccnc3cc(Cc4cc(C)cc(C)c4)ccc23)c1O` [SJ000311319-1], the half-maximal inhibitory concentration (IC50) under setting [2] turned out to be 23.6 µM.

Take `CN(C)c1cccc(Oc2ccc3c(NCCCNCc4ccco4)ccnc3c2)c1` [SJ000311230-1, CN(C)c1cccc(Oc2ccc3c(NCCCNCc4occc4)ccnc3c2)c1]: the IC50 under setting [1] was more than 70 µM.

In the case of `CCC(COC(C)=O)NC1=C(Cl)C(=O)c2ccccc2C1=O` (centres unmarked) [SJ000149466-1], the IC50 under setting [2] worked out at 17.2 µM.

Regarding `O=S(=O)(c1ccc(Cl)cc1)c1nc(-c2cccc(Br)c2)oc1N1CCOCC1` [SJ000027481-1], the IC50 under setting [2] was determined as 9.2 µM.

With `COc1ccc(Oc2ccc3c(NCCCNCc4cccc(OC)c4O)ccnc3c2)cc1` [SJ000311219-1], under setting [2], the IC50 is 29 µM.

For `Fc1ccc(CN(CCCCNc2ccnc3cc(Cl)ccc23)Cc2ccccc2)cc1` [SJ000522725-1, Fc1ccc(CN(CCCCNc2ccnc3cc(Cl)ccc23)Cc4ccccc4)cc1], the half-maximal inhibitory concentration (IC50) under setting [1] is more than 70 µM.

Regarding `NC1=C(Nc2ccc(Cl)cc2)C(=O)c2ccccc2C1=O` [SJ000562630-1], the 50% inhibitory concentration (IC50) under setting [2] worked out at 53.8 µM.

For the compound `CCCN(CCCNc1ccnc2cc(Cl)ccc12)Cc1ccc2[nH]ccc2c1` [SJ000522746-2, CCCN(CCCNc1ccnc2cc(Cl)ccc12)Cc3ccc4[nH]ccc4c3], under setting [1], the IC50 amounted to 2.8 µM.

With `CCC(CC)c1ccc2c(NCCCNCc3cccc(OC)c3O)ccnc2c1` [SJ000311267-1], the IC50 under setting [2] was determined as 9.95 µM.

Take `Clc1ccc2c(NCCCCN(Cc3ccccc3)CC3CCCCC3)ccnc2c1` [SJ000361194-2, Clc1ccc2c(NCCCCN(CC3CCCCC3)Cc4ccccc4)ccnc2c1]: the IC50 under setting [1] was more than 70 µM.

`c1ccc(-c2ccc3c(NCCCNCc4cccc5c4OCO5)ccnc3c2)cc1` [SJ000311284-1]: the IC50 under setting [2] was 22.2 µM.

With `COc1cccc(CNCCCNc2ccnc3cc(-c4ccc5c(c4)OCO5)ccc23)c1O` [SJ000311291-1], the IC50 under setting [2] worked out at 24.6 µM.

As to `Cc1ccc(S(=O)(=O)c2nc(-c3ccccc3Cl)oc2N2CCOCC2)cc1` [SJ000230856-1], the IC50 under setting [2] was 4.34 µM.

Regarding `CCCCCCNCCCNc1ccnc2cc(C(F)(F)F)ccc12` [SJ000361124-1], under setting [1], the IC50 came out at 57.6 µM.

Consider `COc1ccc(F)cc1CNCCCNc1ccnc2cc(CCc3ccccc3)ccc12` [SJ000311256-1], for which the IC50 under setting [2] is 37.1 µM.

Regarding `Cc1cc(C)cc(Cc2ccc3c(NCCCNCc4cccc5c4OCO5)ccnc3c2)c1` [SJ000311320-1], under setting [2], the IC50 came to 16.3 µM.

On to `COc1ccc(F)cc1CNCCCNc1ccnc2cc(-c3ccc(C(F)(F)F)cc3)ccc12` [SJ000311281-01], for which the half-maximal inhibitory concentration (IC50) under setting [3] is 5.58 µM.

`Cc1ccc(S(=O)(=O)N2CCN(C3=C(Cl)C(=O)c4ccccc4C3=O)CC2)cc1` [SJ000021282-1]: the IC50 under setting [2] stood at 10.4 µM.

As to `COc1cccc(Oc2ccc3c(NCCCNCc4cc(F)ccc4OC)ccnc3c2)c1` [SJ000311217-1], the IC50 under setting [2] was 36.8 µM.

`FC(F)(F)c1ccc2c(NCCCNCc3cc4ccccc4s3)ccnc2c1` [SJ000521060-1, FC(F)(F)c1ccc2c(NCCCNCc3cc4ccccc4s3)ccnc2c1]: the IC50 under setting [1] was more than 70 µM.

Take `c1coc(CNCCCNc2ccnc3cc(-c4cccc5ccccc45)ccc23)c1` [SJ000311274-1, C(CNCc1occc1)CNc2ccnc3cc(ccc23)c4cccc5ccccc45]: the IC50 under setting [1] was more than 70 µM.

Regarding `COc1cccc(CNCCCNc2ccnc3cc(Cc4cccc(C(F)(F)F)c4)ccc23)c1O` [SJ000311299-1], the IC50 under setting [2] is 27.5 µM.

For the compound `Clc1ccc(Oc2ccc3c(NCCCNCc4ccco4)ccnc3c2)cc1` [SJ000311226-1, Clc1ccc(Oc2ccc3c(NCCCNCc4occc4)ccnc3c2)cc1], the concentration for half-maximal inhibition (IC50) under setting [1] is more than 70 µM.

As to `COc1ccc(F)cc1CNCCCNc1ccnc2cc(Oc3ccc(C(C)(C)C)cc3)ccc12` [SJ000311237-1], the concentration for half-maximal inhibition (IC50) under setting [2] turned out to be 6.29 µM.

As to `COc1ccc(C2Nc3ccccc3C(=O)N2CCCN2CCOCC2)cc1OC(F)F` (centres unmarked) [SJ000803760-1], the IC50 under setting [2] was more than 70 µM.

On to `c1ccc(-c2ccc3c(NCCCNCc4cccc5c4OCO5)ccnc3c2)cc1` [SJ000311284-01], for which the IC50 under setting [3] was found to be 20.6 µM.

On to `COc1cccc(CNCCCNc2ccnc3cc(Cc4ccc(C#N)cc4)ccc23)c1O` [SJ000311303-1], for which the IC50 under setting [2] was 51 µM.

Consider `Clc1ccc2c(NCCCNCc3csc4ccccc34)ccnc2c1` [SJ000521033-1, Clc1ccc2c(NCCCNCc3csc4ccccc34)ccnc2c1], for which, under setting [1], the IC50 was more than 70 µM.

For `c1ccc(Cc2ccc3c(NCCCNCc4ccco4)ccnc3c2)cc1` [SJ000311306-2, C(CNCc1occc1)CNc2ccnc3cc(Cc4ccccc4)ccc23], the IC50 under setting [1] stood at 32.2 µM.

With `COc1ccc(F)cc1CNCCCNc1ccnc2cc(Oc3cccc(N(C)C)c3)ccc12` [SJ000311233-1], the IC50 under setting [2] is 5.63 µM.

With `Cc1ccc(NC2=C(N)C(=O)c3ccccc3C2=O)cc1` [SJ000562618-1], the IC50 under setting [2] came out at 60.6 µM.

Regarding `COc1ccc(F)cc1CNCCCNc1ccnc2cc(Oc3ccccc3)ccc12` [SJ000311209-1], the IC50 under setting [2] stood at 29 µM.

Take `Clc1ccc(CN(CCCCNc2ccnc3cc(Cl)ccc23)Cc2ccccc2)c(Cl)c1` [SJ000361207-2, Clc1ccc(CN(CCCCNc2ccnc3cc(Cl)ccc23)Cc4ccccc4)c(Cl)c1]: the IC50 under setting [1] was more than 70 µM.

Take `FC(F)(F)c1ccc(-c2ccc3c(NCCCNCc4cccc5c4OCO5)ccnc3c2)cc1` [SJ000311280-01]: the IC50 under setting [3] came out at 4.07 µM.

Turning to `O=C1C(Cl)=C(NCCN2CCOCC2)C(=O)c2ncccc21` [SJ000312204-6], the IC50 under setting [2] is 2.25 µM.

Regarding `Cc1ccc(S(=O)(=O)c2nc(-c3ccccc3C)oc2N2CC(C)OC(C)C2)cc1` (centres unmarked) [SJ000329041-1], the IC50 under setting [2] was 11.8 µM.

Regarding `CCCN(CCCNc1ccnc2cc(C(F)(F)F)ccc12)Cc1ccccc1OC` [SJ000523072-1, CCCN(CCCNc1ccnc2cc(ccc12)C(F)(F)F)Cc3ccccc3OC], under setting [1], the IC50 is more than 70 µM.

Consider `COc1cccc(CNCCCNc2ccnc3cc(-c4ccc(F)cc4)ccc23)c1O` [SJ000311239-1], for which the IC50 under setting [2] came out at 33.3 µM.
